Data reported in EP0463173B1, “HAIR TONIC AND DRESSING COMPOSITION” (OTSUKA PHARMACEUTICAL CO., LTD., priority 1990, dated 1991).

Tested on: shaved mice
Experiment: Hair grow-promoting effect in shaved mice (method of Kubo et al.), hair grow score
Format: in vivo, ddy male mice
Conditions: 0.2 ml of 0.2 % solution in 75 % ethanol applied to shaved back once a day, score 0-4, 15 mice
Protocol: According to the method of Kubo et al. (Yakugaku Zasshi 108 (10) P971-978 (1988)), an experiment was conducted using six weeks old ddy male mice. Depilatory cream was applied to the back of mice, and after 8 minutes, wiped off with absorbent cotton soaked with hot water at 40°C to remove hair at 4 to 5 cm². The next day, those mice with no injury and undepilated hair were selected and used as shaved mice. Each experimental group consisted of 15 mice.
Each 0.2 ml of a solution to be tested and a control solution were uniformly applied to the shaved part of mice with a brush once a day for 18 days.
Evaluation of the hair grow-promoting effect was conducted by evaluating a hair grow score at two day intervals for 18 days and testing a significance difference with Willcoxon Rank sum test. The following hair grow score standards were employed: 0: Completely no growth of hair is observed with naked eye 1: Recovery up to 25 % of normal state 2: Recovery up to 50 % of normal state 3: Recovery up to 75 % of normal state 4: Recovery up to nearly normal state and each standard score were further subdivided into three stages and hair grow score was obtained for each mouse.
The samples used for testing for effect were as follows: Control: 75 % etanol solution Preparation of the present invention: 0.2 % 6-[4-(1-cyclohexyl-1,2,3,4-tetrazol-5-yl)butoxy]-3,4-dihydrocarbostyril in 75 % ethanol solution The results are shown in Table 1.

## O=C1CCc2cc(OCCCCc3nnnn3C3CCCCC3)ccc2N1 [Prep. of invention, 6-[4-(1-cyclohexyl-1,2,3,4-tetrazol-5-yl)butoxy]-3,4-dihydrocarbostyril]
Day 8 of treatment
  mean hair grow score ± S.E.: 0.12±0.07
Day 10 of treatment
  mean hair grow score ± S.E.: 0.17±0.07
Day 12 of treatment
  mean hair grow score ± S.E.: 0.72±0.17
Day 14 of treatment
  mean hair grow score ± S.E.: 1.45±0.23
Day 16 of treatment
  mean hair grow score ± S.E.: 2.25±0.27
Day 18 of treatment
  mean hair grow score ± S.E.: 2.58±0.28
